{
  "source": "patent US20240100062A1",
  "about": "“Methods of Treatment With an Iboga Alkaloid” (priority 2022, published 2024)",
  "type_in_all_cases": "in vivo, human",
  "key": {"[1]": {"test_system": "special operations veterans", "assay": "Neuropsychological battery overall, Example 1 study", "details": "post treatment time points", "source_text": "A summary of the results is in Table 1 and Table 1-6 of Example 1. […] In Table 1, neuropsychological test scores are represented as a T score (mean of 50, SD of 10). Unless stated otherwise, a higher score represents better performance.\nNeuropsychological testing of the enrolled subjects was designed to examine abilities over several domains of cognitive functioning, including estimated intelligence quotient (IQ), verbal fluency, working memory (visual and auditory), long term memory (visual and auditory), processing speed, sustained attention, problem solving, ability to perceive patterns, executive functioning, such as ability to hold and manipulate or update information in the head, inhibition, ability to organize, plan, and develop solutions to problems. In addition, assessments examining cognitive abilities over several domains of functioning were done to evaluate the safety of ibogaine use. […]"}, "[2]": {"test_system": "special operations veterans", "assay": "WHODAS 2.0 disability assessment, Example 1 study", "details": "for WHODAS 2.0 Self Care subscale, mean: baseline 5.2% ± 9.2%; for WHODAS 2.0 Mobility subscale, mean: baseline 14.7% ± 15.7%", "protocol": "(§1) With subjects in the fasting state, an intravenous infusion of 1 gram of magnesium sulfate was administered 1-2 hours prior to treatment. […] Medical staff (MD, RN, or EMT) were onsite at a ratio of at least 1 staff per 2 patients throughout treatment for monitoring and management, but no specific coaching or psychological support was provided during treatment.\n(§2) Post treatment, each subject was assessed four days after treatment, one month after treatment, and, if willing, one year after treatment. The post-treatment assessments conducted at four days and at one month after treatment included neuropsychological testing, measures of PTSD, depression, anxiety, mystical experiences, functional imaging and EEG. Post-treatment assessments conducted at one year after treatment included PTSD, depression, and anxiety measures.\nWorld Health Organization Disability Assessment Scale 2.0 (WHODAS 2.0) was used as a measure of function. WHODAS was used to assess the impact of health conditions across six life domains (cognition, mobility, self-care, interpersonal, life activities, and community participation) and it is sensitive to change over time (Gold, L. H., J. Am. Acad. Psychiatry Law 42, 9 (2014). Each item in the assessment is rated on a scale ranging from no problems to extreme problems (Üstün, T. B. et al., Measuring health and disability: Manual for WHO disability assessment schedule WHODAS 2.0. (World Health Organization, 2010)). To capture inter-individual variability in disability the WHODAS complex scoring method was used. Raw scores were converted to a metric ranging from 0 (no disability) to 100 (full disability), by calculating the ratio of the participant's score relative to the maximum possible score in each domain as well as to the total score (Id.). A score of 20%-39% was considered mild, 40%-59% was moderate, 60%-79% was moderate-severe and 80%-100% was severe. Scores from baseline were compared to scores from one-month post treatment."}, "[3]": {"test_system": "special operations veterans", "assay": "CAPS-5 clinician-administered PTSD scale, Example 1 study", "details": "for CAPS-5 score, mean: p(FDR) <0.001", "protocol": "as §1, §2\nClinician administered scales included CAPS-5 (Clinician-administered PTSD Scale for DSM-5), which is a gold standard assessment of PTSD symptom severity; MADRS (Montgomery-Asberg Depression Rating Scale), a measure for depressive symptom severity; and Hamilton-Anxiety Rating Scale (HAM-A) (Shear, M. K. et al., Depress. Anxiety 13, 166-178 (2001)) a measure for anxiety symptom severity; SCID-5 (Structured Clinical Interview for DSM-5) Overview for a historical and environmental context of symptom presentation; MINI DSM-5 (Mini International Neuropsychiatric Interview from DSM-5) for a structured psychodiagnostics assessment; BAT-L (Boston Assessment of TBI—Lifetime) for a lifetime history of TBI and blast exposure; and Ohio State University TBI Identification Method (Short Form) for a lifetime history of TBI. MADRS testing provides an indication of depressive symptoms, CAPS-5 provides an indication of PTSD and SIGH-A provides an indication of anxiety. Collectively these overlap to provide indication of mood, concentration, sleep and tension.\nFor the CAPS-5, the test version with a […] structured interview of PTSD symptoms over the past week was used, using a 0 (“Absent”) to 4 (“Extreme/Incapacitating”) scale, with possible total scores ranging from 0 to 80. The score range 23 to 34 is considered moderate PTSD while a higher score represents severe PTSD (Weathers, F. W. et al., Psychol. Assess. 30, 383-395 (2018))."}},
  "data": [
    {"smiles": "CCC1CC2CC3c4[nH]c5ccc(OC)cc5c4CCN(C2)C13", "note": "(centres unmarked) [ibogaine, Ibogaine]", "values": [
      {"measurement": "Declines across performance domains", "setting": "[1]", "result": "No declines were noted across any performance domain"},
      {"measurement": "WHODAS 2.0 Mobility subscale, D", "setting": "[2]; Baseline vs One-Month", "result": 0.83},
      {"measurement": "WHODAS 2.0 Self Care subscale, D", "setting": "[2]; Baseline vs One-Month", "result": 0.51},
      {"measurement": "WHODAS 2.0 Cognition subscale, D", "setting": "[2]; Baseline vs Post-Treatment", "result": 0.96},
      {"measurement": "WHODAS 2.0 Community Participation subscale, D", "setting": "[2]; Baseline vs Post-Treatment", "result": 0.53},
      {"measurement": "WHODAS 2.0 Interpersonal subscale, D", "setting": "[2]; Baseline vs Post-Treatment", "result": 0.60},
      {"measurement": "WHODAS 2.0 Life Activities subscale, D", "setting": "[2]; Baseline vs Post-Treatment", "result": 0.48},
      {"measurement": "WHODAS 2.0 Mobility subscale, D", "setting": "[2]; Baseline vs Post-Treatment", "result": 0.53},
      {"measurement": "WHODAS 2.0 Self Care subscale, D", "setting": "[2]; Baseline vs Post-Treatment", "result": 0.37},
      {"measurement": "WHODAS 2.0 Self Care subscale, mean", "setting": "[2]; One-Month, SD 2.9%, p(FDR) 0.009", "result": "1.0% ±"},
      {"measurement": "WHODAS 2.0 Mobility subscale, mean", "setting": "[2]; One-Month, SD 3.3%, p(FDR) <0.001", "result": "1.3% ±"},
      {"measurement": "WHODAS 2.0 Cognition subscale, mean", "setting": "[2]; One-Month, SD 7.9%, baseline 36.1% ± 14.6%, p(FDR) <0.001", "result": "5.0% ±"},
      {"measurement": "WHODAS 2.0 Interpersonal subscale, mean", "setting": "[2]; One-Month, SD 9.5%, baseline 32.3% ± 20.4, p(FDR) <0.001", "result": "4.8% ±"},
      {"measurement": "WHODAS 2.0 Community Participation subscale, mean", "setting": "[2]; One-Month, SD 13.1%, baseline 35.6% ± 21.1%, p(FDR) <0.001", "result": "5.9% ±"},
      {"measurement": "WHODAS 2.0 Life Activities subscale, mean", "setting": "[2]; One-Month, SD 16.2%, baseline 41.1% ± 24.8%, p(FDR) <0.001", "result": "9.1% ±"},
      {"measurement": "WHODAS 2.0 Self Care subscale, mean", "setting": "[2]; Post-Treatment, SD 4.7%, p(FDR) 0.028", "result": "1.9% ±"},
      {"measurement": "WHODAS 2.0 Mobility subscale, mean", "setting": "[2]; Post-Treatment, SD 13.5%, p(FDR) 0.001", "result": "7.2% ±"},
      {"measurement": "Functioning", "setting": "[2]; immediately and one-month post-treatment", "result": "clinically and statistically significant improvements in functioning"},
      {"measurement": "CAPS-5 score, mean", "setting": "[3]; 1-mo. post, SD 8.1, baseline 31.7 ± 13.0, N 28, only participants with mild TBI", "result": 4.8},
      {"measurement": "CAPS-5 score, mean", "setting": "[3]; 1-mo. post, SD 8.7, baseline 35.7 ± 11.0, N 23, only participants meeting diagnostic criteria per MINI at baseline", "result": 6.0},
      {"measurement": "CAPS-5 % Reduction vs Baseline, mean", "setting": "[3]; 1-mo. post, SD 17%, only participants with mild TBI", "result": "88% ±"},
      {"measurement": "CAPS-5 % Reduction vs Baseline, mean", "setting": "[3]; 1-mo. post, SD 19%, only participants meeting diagnostic criteria per MINI", "result": "86% ±"},
      {"measurement": "CAPS-5 score, mean", "setting": "[3]; 1-wk post, SD 5.2, baseline 35.7 ± 11.0, N 23, only participants meeting diagnostic criteria per MINI at baseline", "result": 4.4},
      {"measurement": "CAPS-5 score, mean", "setting": "[3]; 1-wk. post, SD 4.5, baseline 31.7 ± 13.0, N 28, only participants with mild TBI", "result": 3.6},
      {"measurement": "CAPS-5 % Reduction vs Baseline, mean", "setting": "[3]; 1-wk. post, SD 14%, only participants with mild TBI", "result": "89% ±"},
      {"measurement": "CAPS-5 % Reduction vs Baseline, mean", "setting": "[3]; 1-wk. post, SD 17%, only participants meeting diagnostic criteria per MINI", "result": "87% ±"}
    ]}
  ]
}
